Laboratory results published in patent publication US20220041606A1, “POSITIVE ALLOSTERIC MODULATORS OF THE MUSCARINIC ACETYLCHOLINE RECEPTOR M1” (Vanderbilt University, priority 2020, published 2022).

Key:
[1] = target: T1, human mAChR M1 (Homo sapiens, UniProt P11229); assay: mAChR M1 cell-based functional assay (calcium mobilization), PAM activity: increase in the EC20 acetylcholine response; conditions: CHO-K1 cells expressing hM1; potentiation of EC20 acetylcholine response
T1 construct: host or cells: CHO-K1 cells (ATCC), stably transfected using Lipofectamine2000
T1 sequence (P11229 1-460): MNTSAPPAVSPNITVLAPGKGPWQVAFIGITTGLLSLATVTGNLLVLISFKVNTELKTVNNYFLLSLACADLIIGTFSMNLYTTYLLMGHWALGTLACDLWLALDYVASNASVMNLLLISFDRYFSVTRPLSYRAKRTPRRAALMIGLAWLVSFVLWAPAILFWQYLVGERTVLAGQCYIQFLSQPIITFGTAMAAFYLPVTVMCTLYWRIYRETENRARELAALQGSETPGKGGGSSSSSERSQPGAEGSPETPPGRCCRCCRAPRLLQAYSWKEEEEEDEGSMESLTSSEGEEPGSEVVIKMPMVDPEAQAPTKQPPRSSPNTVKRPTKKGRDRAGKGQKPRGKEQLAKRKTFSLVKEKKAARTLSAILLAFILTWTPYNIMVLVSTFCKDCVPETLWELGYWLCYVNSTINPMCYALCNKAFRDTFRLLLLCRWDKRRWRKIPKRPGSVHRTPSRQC
Outline: (§1)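 CHO-K1 cells stably expressing hM1, loaded with Fluo-4 AM; calcium flux read on FDSS 6000. Compound (11-point, 1:3 CRC) added at 4 s, EC20 acetylcholine at 144 s, EC80 at 230 s; agonism from response to compound alone, PAM from increase in EC20 response; Emax relative to acetylcholine maximum, four-parameter fit.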

[2] = target: T1, human mAChR M1; assay: mAChR M1 cell-based functional assay (calcium mobilization), agonist activity upon compound addition; conditions: CHO-K1 cells expressing hM1; for EC50: compound alone, before acetylcholine addition; for Emax: relative to the maximum for acetylcholine
Outline: as §1

EC50 [1] [µM] | Emax [1] [%] | EC50 [2] [µM] | Emax [2] [%] | SMILES
5.29 | 42 | > 10 | < 5 | Cn1cc2c(-c3cc(F)c(Cn4cc(C(=O)N[C@H]5CCCCC[C@@H]5O)c5sccc5c4=O)c(F)c3)cccc2n1 [Compound D33, 5-(2,6-difluoro-4-(2-methyl-2H-indazol-4-yl)benzyl)-N-((1S,2S)-2-hydroxycycloheptyl)-4-oxo-4,5-dihydrothieno[3,2-c]pyridine-7-carboxamide]
> 10 | 25 | > 10 | < 5 | CC1(C)COCCC1NC(=O)c1cn(Cc2ccc(-n3cccn3)cc2)c(=O)c2ccoc12 (centres unmarked) [Compound D1, 5-(4-(1H-pyrazol-1-yl)benzyl)-N-(3,3-dimethyltetrahydro-2H-pyran-4-yl)-4-oxo-4,5-dihydrofuro[3,2-c]pyridine-7-carboxamide]
> 10 | 40 | > 10 | < 5 | Cn1cc(-c2ccc(Cn3cc(C(=O)NC4CC5(COC5)C4)c4occc4c3=O)c(F)c2)cn1 [Compound D17, 5-(2-fluoro-4-(1-methyl-1H-pyrazol-4-yl)benzyl)-4-oxo-N-(2-oxaspiro[3.3]heptan-6-yl)-4,5-dihydrofuro[3,2-c]pyridine-7-carboxamide]
> 10 | 53 | > 10 | < 5 | Cn1cc2c(-c3cc(F)c(Cn4cc(C(=O)NCC5CCCO5)c5occc5c4=O)c(F)c3)cccc2n1 (centres unmarked) [Compound D25, 5-(2,6-difluoro-4-(2-methyl-2H-indazol-4-yl)benzyl)-4-oxo-N-((tetrahydrofuran-2-yl)methyl)-4,5-dihydrofuro[3,2-c]pyridine-7-carboxamide]
> 10 | 25 | > 10 | < 5 | Cn1ccc(-c2ccc(Cn3cc(C(=O)NC4CC5(COC5)C4)c4occc4c3=O)c(F)c2)n1 [Compound D10, 5-(2-fluoro-4-(1-methyl-1H-pyrazol-3-yl)benzyl)-4-oxo-N-(2-oxaspiro[3.3]heptan-6-yl)-4,5-dihydrofuro[3,2-c]pyridine-7-carboxamide]
4.02 | 67 | > 10 | < 5 | Cn1cc(-c2ccc(Cn3cc(C(=O)N[C@H]4CCOC[C@@H]4O)c4occc4c3=O)c(F)c2)cn1 [Compound D12, 5-(2-fluoro-4-(1-methyl-1H-pyrazol-4-yl)benzyl)-N-((3R,4S)-3-hydroxytetrahydro-2H-pyran-4-yl)-4-oxo-4,5-dihydrofuro[3,2-c]pyridine-7-carboxamide]
> 10 | 37 | > 10 | < 5 | Cn1cc(-c2ccc(Cn3cc(C(=O)N[C@H]4CCOC[C@@H]4O)c4sccc4c3=O)c(F)c2)cn1 [Compound D29, 5-(2-fluoro-4-(1-methyl-1H-pyrazol-4-yl)benzyl)-N-((3R,4S)-3-hydroxytetrahydro-2H-pyran-4-yl)-4-oxo-4,5-dihydrothieno[3,2-c]pyridine-7-carboxamide]

Continued, molecule first:

SMILES | EC50 [1] [µM] | Emax [1] [%] | EC50 [2] [µM] | Emax [2] [%]
Cn1cc(-c2ccc(Cn3cc(C(=O)N[C@H]4CCC[C@@H]4O)c4nccnc4c3=O)c(F)c2)cn1 [Compound A79, 6-(2-fluoro-4-(1-methyl-1H-pyrazol-4-yl)benzyl)-N-((1S,2S)-2-hydroxycyclopentyl)-5-oxo-5,6-dihydropyrido[3,4-b]pyrazine-8-carboxamide] | ≥ 10 | 51 | > 10 | < 5
Cn1ccc(-c2ccc(Cn3cc(C(=O)N[C@H]4CCOC[C@@H]4O)c4nccn4c3=O)c(F)c2)n1 [Compound B1, 6-(2-fluoro-4-(1-methyl-1H-pyrazol-3-yl)benzyl)-N-((3R,4S)-3-hydroxytetrahydro-2H-pyran-4-yl)-5-oxo-5,6-dihydroimidazo[1,2-c]pyrimidine-8-carboxamide] | 0.13 | 67 | 3 | 55
Cn1ccc(-c2ccc(Cn3cc(C(=O)N[C@H]4CCC[C@@H]4O)c4nccn4c3=O)c(F)c2)n1 [Compound B3, 6-(2-fluoro-4-(1-methyl-1H-pyrazol-3-yl)benzyl)-N-((1S,2S)-2-hydroxycyclopentyl)-5-oxo-5,6-dihydroimidazo[1,2-c]pyrimidine-8-carboxamide] | 0.54 | 67 |  | 33
Cn1nccc1-c1ccc(Cn2cc(C(=O)N[C@H]3CCCC[C@@H]3O)c3ncccc3c2=O)c(F)c1 [Compound A46, 6-(2-fluoro-4-(1-methyl-1H-pyrazol-5-yl)benzyl)-N-((1S,2S)-2-hydroxycyclohexyl)-5-oxo-5,6-dihydro-1,6-naphthyridine-8-carboxamide] | 1.13 | 41 | > 10 | < 5
Cn1cc2c(-c3cc(F)c(Cn4cc(C(=O)NCC(O)C(F)(F)F)c5nccnc5c4=O)c(F)c3)cccc2n1 (centres unmarked) [Compound A74, 6-(2,6-difluoro-4-(2-methyl-2H-indazol-4-yl)benzyl)-5-oxo-N-(3,3,3-trifluoro-2-hydroxypropyl)-5,6-dihydropyrido[3,4-b]pyrazine-8-carboxamide] | 3.81 | 53 | > 10 | < 5
Cn1cc(-c2ccc(Cn3cc(C(=O)N[C@H]4CCC[C@@H]4O)c4nccn4c3=O)c(F)c2)cn1 [Compound B7, 6-(2-fluoro-4-(1-methyl-1H-pyrazol-4-yl)benzyl)-N-((1S,2S)-2-hydroxycyclopentyl)-5-oxo-5,6-dihydroimidazo[1,2-c]pyrimidine-8-carboxamide] | 0.24 | 73 |  | 48
Cn1nccc1-c1ccc(Cn2cc(C(=O)N[C@H]3CCOC[C@@H]3O)c3nccn3c2=O)c(F)c1 [Compound B31, 6-(2-fluoro-4-(1-methyl-1H-pyrazol-5-yl)benzyl)-N-((3R,4S)-3-hydroxytetrahydro-2H-pyran-4-yl)-5-oxo-5,6-dihydroimidazo[1,2-c]pyrimidine-8-carboxamide] | 1.13 | 82 | > 10 | 6
Cc1cccc(-c2ccc(Cn3cc(C(=O)N[C@H]4CCOC[C@@H]4O)c4ncccc4c3=O)c(F)c2)c1 [Compound A29, 6-((3-fluoro-3′-methyl-[1,1′-biphenyl]-4-yl)methyl)-N-((3R,4S)-3-hydroxytetrahydro-2H-pyran-4-yl)-5-oxo-5,6-dihydro-1,6-naphthyridine-8-carboxamide] | 4.84 | 61 | > 10 | < 5
Cn1cc(-c2ccc(Cn3cc(C(=O)N[C@H]4CCOC[C@@H]4O)c4nccn4c3=O)c(F)c2)cn1 [Compound B5, 6-(2-fluoro-4-(1-methyl-1H-pyrazol-4-yl)benzyl)-N-((3R,4S)-3-hydroxytetrahydro-2H-pyran-4-yl)-5-oxo-5,6-dihydroimidazo[1,2-c]pyrimidine-8-carboxamide] | 0.046 | 68 | 0.15 | 62
Cn1cc2c(-c3cc(F)c(Cn4cc(C(=O)N[C@H]5CCOC[C@@H]5O)c5ncn(C)c5c4=O)c(F)c3)cccc2n1 [Compound C4, 5-(2,6-difluoro-4-(2-methyl-2H-indazol-4-yl)benzyl)-N-((3R,4S)-3-hydroxytetrahydro-2H-pyran-4-yl)-3-methyl-4-oxo-4,5-dihydro-3H-imidazo[4,5-c]pyridine-7-carboxamide] | 0.31 | 58 | > 10 | < 5
O=C(N[C@H]1CCCC[C@@H]1O)c1cn(Cc2ccc(-n3cccn3)cc2)c(=O)c2cccnc12 [Compound A13, 6-(4-(1H-pyrazol-1-yl)benzyl)-N-((1S,2S)-2-hydroxycyclohexyl)-5-oxo-5,6-dihydro-1,6-naphthyridine-8-carboxamide] | 1.13 | 71 | 8.95 | 21
Cn1cc(-c2ccc(Cn3cc(C(=O)N[C@H]4CCOC[C@@H]4O)c4nccnc4c3=O)c(F)c2)cn1 [Compound A77, 6-(2-fluoro-4-(1-methyl-1H-pyrazol-4-yl)benzyl)-N-((3R,4S)-3-hydroxytetrahydro-2H-pyran-4-yl)-5-oxo-5,6-dihydropyrido[3,4-b]pyrazine-8-carboxamide] | 4.21 | 72 |  | 18
O=C(N[C@H]1CCC[C@@H]1O)c1cn(Cc2ccc(-n3cccn3)cc2)c(=O)n2ccnc12 [Compound B14, 6-(4-(1H-pyrazol-1-yl)benzyl)-N-((1S,2S)-2-hydroxycyclopentyl)-5-oxo-5,6-dihydroimidazo[1,2-c]pyrimidine-8-carboxamide] | 1.33 | 70 |  | 28
Cc1cnn(C)c1-c1ccc(Cn2cc(C(=O)N[C@H]3CCCC[C@@H]3O)c3nccn3c2=O)c(F)c1 [Compound B35, 6-(4-(1,4-dimethyl-1H-pyrazol-5-yl)-2-fluorobenzyl)-N-((1S,2S)-2-hydroxycyclohexyl)-5-oxo-5,6-dihydroimidazo[1,2-c]pyrimidine-8-carboxamide] | 7.02 | 44 | > 10 | < 5
